ChEMBL document CHEMBL6096703 (J Med Chem, 2025)
Active and inactive are the calls of the source. The rule behind the calls is not given here.

Assays:
[1] = target: Poly [ADP-ribose] polymerase 1 (Homo sapiens, UniProt P09874); assay: Inhibition of PARP1 (unknown origin) at 1 nM preincubated with compound for 10 mins followed by DNA and NAD+ addition and measured after 60 mins by chemiluminescence based envision reader analysis relative to control; details: time 70.0 min
[2] = target: Poly [ADP-ribose] polymerase 2 (Homo sapiens, UniProt Q9UGN5); assay: Inhibition of PARP2 (unknown origin) at 1 uM preincubated with compound for 10 mins followed by DNA and NAD+ addition and measured after 60 mins by chemiluminescence based envision reader analysis relative to control; details: time 70.0 min
[3] = Clearance in male Balb/c mouse at 1 mg/kg, po measured upto 96 hrs by LC-MS/MS analysis; type: ADME, organism-based; details: in vivo, po, 1 mg/kg, 96 h
[4] = system: MDA-MB-436; assay: Antiproliferative activity against human MDA-MB-436 cells assessed as inhibition of cell proliferation at 100 nM incubated for 7 days by CCK-8 assay relative to control; type: functional; details: MDA-MB-436, 168 h, time 7 day
[5] = Cmax in rat at 2.5 mg/kg, iv measured upto 96 hrs by LC-MS/MS analysis; type: ADME, organism-based; details: in vivo
[6] = Cmax in rat at 2.5 mg/kg, po measured upto 96 hrs by LC-MS/MS analysis; type: ADME, organism-based; details: in vivo
[7] = Half life in rat at 2.5 mg/kg, iv measured upto 96 hrs by LC-MS/MS analysis; type: ADME, organism-based; details: in vivo
[8] = Apparent volume of distribution in rat at 2.5 mg/kg, po measured upto 96 hrs by LC-MS/MS analysis; type: ADME, organism-based; details: in vivo
[9] = Oral bioavailability in rat at 2.5 mg/kg measured upto 96 hrs by LC-MS/MS analysis; type: ADME, organism-based; details: in vivo
[10] = system: DLD-1; assay: Inhibition of colony formation in wild type human DLD-1 cells assessed as reduction in survival rate at 2.5 to 20 uM incubated for 10 days by crystal violet staining based assay; type: functional, cell-based; details: dose 2.5-20 µM, time 10.0 day
[11] = system: MDA-MB-436; assay: Induction of apoptosis in human MDA-MB-436 cells assessed as early apoptotic cells at 1 nM incubated for 3 days by Annexin V/ PI staining based flow cytometry (reference value: 12.8%); type: functional; details: time 3 day
[12] = system: MDA-MB-436; assay: Induction of apoptosis in human MDA-MB-436 cells assessed as early apoptotic cells at 10 nM incubated for 3 days by Annexin V/ PI staining based flow cytometry (reference value: 12.8%); type: functional; details: time 3 day
[13] = system: MDA-MB-436; assay: Induction of apoptosis in human MDA-MB-436 cells assessed as late apoptotic cells at 10 nM incubated for 3 days by Annexin V/ PI staining based flow cytometry (reference value: 6.57%); type: functional; details: time 3 day
[14] = system: MDA-MB-436; assay: Induction of apoptosis in human MDA-MB-436 cells assessed as early apoptotic cells at 100 nM incubated for 3 days by Annexin V/ PI staining based flow cytometry (reference value: 12.8%); type: functional; details: time 3 day
[15] = system: MDA-MB-436; assay: Induction of cell cycle arrest in human MDA-MB-436 cells assessed as accumulation of cells at G0/G1 phase at 10 nM incubated for 3 days by PI staining based flow cytometric analysis (Rvb =56.18%); type: functional; details: time 3 day
[16] = system: MDA-MB-436; assay: Induction of cell cycle arrest in human MDA-MB-436 cells assessed as accumulation of cells at G2/M phase at 10 nM incubated for 3 days by PI staining based flow cytometric analysis (Rvb =24.88%); type: functional; details: time 3 day
[17] = system: MDA-MB-436; assay: Induction of DNA damage in human MDA-MB-436 cells assessed as increase in gammaH2AX foci at 0.1 to 1000 nM incubated for 3 days by DAPI staining based immunofluorescence analysis; type: functional, cell-based; details: dose 0.1-1000 nM, time 3.0 day
[18] = system: MDA-MB-436; assay: Induction of DNA damage in human MDA-MB-436 cells assessed as increase in tail intensity at 100 to 1000 nM incubated for 3 days by PI staining based fluorescence microscopic analysis; type: functional, cell-based; details: dose 100-1000 nM, time 3.0 day
[19] = system: MDA-MB-436; assay: Antitumor activity against human MDA-MB-436 cells xenografted in female NOD/SCID mouse assessed as tumor regression rate at 1 mg/kg, po administered once every other day for 28 days relative to control; type: functional; details: time 28 day
[20] = Toxicity in female NOD/SCID mouse xenografted with human MDA-MB-436 cells assessed as change in body weight at 0.3 to 3 mg/kg, po administered once every other day for 28 days and measured every 2 days; type: organism-based; details: in vivo, 672 h, dose 0.3-3 mg/kg, time 28 day
[21] = Toxicity in female NOD/SCID mouse xenografted with human MDA-MB-436 cells assessed as histological changes in heart at 3 mg/kg, po administered once every other day for 28 days by H and E staining based analysis; type: organism-based; details: in vivo, 672 h, time 28 day
[22] = Toxicity in female NOD/SCID mouse xenografted with human MDA-MB-436 cells assessed as histological changes in lung at 3 mg/kg, po administered once every other day for 28 days by H and E staining based analysis; type: organism-based; details: in vivo, 672 h, time 28 day
[23] = Toxicity in female NOD/SCID mouse xenografted with human MDA-MB-436 cells assessed as histological changes in kidney at 3 mg/kg, po administered once every other day for 28 days by H and E staining based analysis; type: organism-based; details: in vivo, 672 h, time 28 day
[24] = system: MDA-MB-436; assay: Antitumor activity against human MDA-MB-436 cells xenografted in female NOD/SCID mouse assessed as weaker Ki67 staining at 0.3 to 3 mg/kg, po administered once every other day for 28 days by immunohistochemical analysis; type: functional, organism-based; details: dose 0.3-3 mg/kg, time 28.0 day
[25] = Acute toxicity in Kunming mouse assessed as change in body weight at 100 to 300 mg/kg administered orally via gavage for 14 days; type: organism-based; details: in vivo, po, 336 h, dose 100-300 mg/kg, time 14 day
[26] = Acute toxicity in Kunming mouse assessed as mortality at 30 to 100 mg/kg administered via gavage once every other day for 14 days; type: organism-based; details: in vivo, po, 336 h, dose 30-100 mg/kg, time 14 day
[27] = Acute toxicity in Kunming mouse assessed as change in cellular morphology of heart at 100 mg/kg administered once every other day via gavage for 14 days by H and E staining based analysis; type: organism-based; details: in vivo, po, 336 h, time 14 day
[28] = Acute toxicity in Kunming mouse assessed as change in liver structure at 300 mg/kg administered via gavage for 14 days by H and E staining based analysis; type: organism-based; details: in vivo, po, 336 h, time 14 day
[29] = Acute toxicity in Kunming mouse assessed as change in cellular morphology of liver at 100 mg/kg administered once every other day via gavage for 14 days by H and E staining based analysis; type: organism-based; details: in vivo, po, 336 h, time 14 day
[30] = Sub-acute toxicity in Kunming mouse assessed as change CK level at 100 to 300 mg/kg administered via gavage for 14 days; type: organism-based; details: in vivo, po, 336 h, dose 100-300 mg/kg, time 14 day
[31] = Sub-acute toxicity in Kunming mouse assessed as change ASTL level at 30 to 100 mg/kg administered via gavage once every other day for 14 days; type: organism-based; details: in vivo, po, 336 h, dose 30-100 mg/kg, time 14 day
[32] = Sub-acute toxicity in Kunming mouse assessed as change CREA2 level at 30 to 100 mg/kg administered via gavage once every other day for 14 days; type: organism-based; details: in vivo, po, 336 h, dose 30-100 mg/kg, time 14 day
[33] = system: MDA-MB-436; assay: Antitumor activity against luciferase tagged human MDA-MB-436 cells xenografted in female NOD-SCID mouse assessed as median survival time at 10 mg/kg, po administered once a day for 34 days; type: functional; details: time 34 day

Poly [ADP-ribose] polymerase 1, sequence (P09874 whole entry): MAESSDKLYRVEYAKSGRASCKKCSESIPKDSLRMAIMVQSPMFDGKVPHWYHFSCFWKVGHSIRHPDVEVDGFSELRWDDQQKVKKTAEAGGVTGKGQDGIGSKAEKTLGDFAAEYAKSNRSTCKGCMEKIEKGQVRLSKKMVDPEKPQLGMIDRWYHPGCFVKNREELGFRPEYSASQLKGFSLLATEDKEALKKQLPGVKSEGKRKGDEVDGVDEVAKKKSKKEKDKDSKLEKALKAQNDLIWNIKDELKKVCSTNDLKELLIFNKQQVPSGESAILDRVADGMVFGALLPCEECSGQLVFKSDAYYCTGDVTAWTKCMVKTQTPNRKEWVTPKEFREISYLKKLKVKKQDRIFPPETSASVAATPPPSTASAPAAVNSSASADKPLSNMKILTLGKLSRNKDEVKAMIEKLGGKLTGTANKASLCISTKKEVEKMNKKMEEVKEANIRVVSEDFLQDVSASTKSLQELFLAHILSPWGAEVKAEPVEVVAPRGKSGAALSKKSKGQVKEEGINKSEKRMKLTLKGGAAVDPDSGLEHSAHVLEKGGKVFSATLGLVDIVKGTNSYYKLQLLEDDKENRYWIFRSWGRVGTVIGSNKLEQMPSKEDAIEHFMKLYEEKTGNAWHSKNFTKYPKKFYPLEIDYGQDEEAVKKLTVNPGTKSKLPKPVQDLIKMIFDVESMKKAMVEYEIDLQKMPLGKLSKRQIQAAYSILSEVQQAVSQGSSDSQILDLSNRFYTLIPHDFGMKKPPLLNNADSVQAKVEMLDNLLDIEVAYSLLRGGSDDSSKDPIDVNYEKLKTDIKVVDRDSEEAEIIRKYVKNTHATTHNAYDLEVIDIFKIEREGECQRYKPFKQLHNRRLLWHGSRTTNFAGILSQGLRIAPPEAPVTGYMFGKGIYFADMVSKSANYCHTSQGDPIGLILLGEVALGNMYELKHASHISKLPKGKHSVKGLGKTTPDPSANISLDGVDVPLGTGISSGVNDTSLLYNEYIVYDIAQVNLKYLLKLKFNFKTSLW
Poly [ADP-ribose] polymerase 2, sequence (Q9UGN5 whole entry): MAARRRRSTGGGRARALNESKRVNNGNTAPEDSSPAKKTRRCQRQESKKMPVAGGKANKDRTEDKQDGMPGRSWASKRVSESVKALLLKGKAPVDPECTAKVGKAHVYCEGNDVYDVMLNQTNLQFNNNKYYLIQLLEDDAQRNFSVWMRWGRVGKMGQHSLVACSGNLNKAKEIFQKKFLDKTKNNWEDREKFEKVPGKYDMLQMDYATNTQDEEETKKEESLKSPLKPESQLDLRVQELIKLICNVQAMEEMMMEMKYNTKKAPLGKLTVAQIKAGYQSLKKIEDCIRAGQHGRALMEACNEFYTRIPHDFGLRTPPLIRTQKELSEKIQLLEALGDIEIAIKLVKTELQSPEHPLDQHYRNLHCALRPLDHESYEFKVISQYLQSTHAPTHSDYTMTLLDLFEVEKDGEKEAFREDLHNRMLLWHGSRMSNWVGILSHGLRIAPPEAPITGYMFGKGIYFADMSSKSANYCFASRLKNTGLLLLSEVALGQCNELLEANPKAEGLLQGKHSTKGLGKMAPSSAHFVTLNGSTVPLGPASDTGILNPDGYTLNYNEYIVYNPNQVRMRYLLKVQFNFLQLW

CCc1cc2ncc(CN3CC=C(c4ccc(C#N)cn4)CC3)cc2[nH]c1=O
inhibition [1]: 93.6%
inhibition [2]: 72.9%
CL [3]: 0.17 mL/min/kg
inhibition at 0.1 µM [4]: 82.2%
Cmax [5]: 13900 ng/mL
Cmax [6]: 7540 ng/mL
half-life [7]: 27.8 h
Vz [8]: 0.33 L/kg
bioavailability [9]: 85.5%
inhibition [10]: inactive
Activity [11]: 17%
Activity [12]: 20.3%
Activity [13]: 9.94%
Activity [14]: 21.9%
Activity [15]: 60.25%
Activity [16]: 29.58%
Activity [17]: Active
Activity [18]: Active
Activity [19]: 59.4%
Activity [20]: Non-toxic
Activity [21]: Non-toxic
Activity [22]: Non-toxic
Activity [23]: Non-toxic
Activity [24]: Active
Activity [25]: Non-toxic
Activity [26]: Non-toxic
Activity [27]: Non-toxic
Activity [28]: Non-toxic
Activity [29]: Non-toxic
Activity [30]: Non-toxic
Activity [31]: Non-toxic
Activity [32]: Non-toxic
Survival [33]: 70 days
